Source: patent publication US6399568B1, “Cyclic tetrapeptide derivatives and medicinal use thereof” (Japan Energy Corporation, priority 1997, dated 2002)
Non-standard residues stand in square brackets, D forms with d. Residues, ends and D or L forms follow the SMILES beside them. *: point of attachment. Asu = N[C@@H](CCCCCC(=O)O)C(=O)O; NHOH = ON*

What was measured:
[1] = system: liver cancer MH134 cell line; assay: Cell proliferation inhibition (72 hours); assay type: cell-based, mouse; settings: read-out: 50% proliferation inhibiting concentration MH134 (nM) mean
Source text: (§1) In order to verify the action of the cyclic tetrapeptide derivative according to the present invention in inhibiting cell proliferation in cancerized cells, the action on the proliferation of the aforementioned B16/BL6 cells was investigated. The evaluation of cell proliferation rates was done utilizing a commercially available measuring kit, specifically, from Promega under the trade name CellTiter 96 Aqueous Non-Radioactive Proliferation Assay Kit. In the measuring kit, the amount of products through reduction of a reagent tetrazolium compound (3-(4,5-dimethylthiazol-2-yl)-5-(3-carboxymethoxyphenyl)-2-(4-sulfophenyl)-2H-tetrazolium, inner salt; MTS) by viable animal cells is determined by detecting spectrophotometrically the color generated from the products. Since the amount of products is proportional to the amount of viable cells, this kit is utilized to evaluate the amount of viable cells.
(§2) According to the procedure of Test Example 1, B16/BL6 cells are inoculated in a 96 well microplate and cultured for 24 hours. Then, 10 μl of a solution of the source solution of a compound to be tested which has been diluted to a predetermined amount per well is added. Thereafter, culture is continued for additional 48 hours and 20 μl of a reagent solution in the aforementioned CellTiter 96 Aqueous Non-Radioactive Proliferation Assay Kit is then added. After incubation is continued at 37° C. for 1 hour, the amount of color generation is measured as an absorbance at 490 n musing a microplate reader.
(§3) The amount of cell proliferation of a group to which a compound to be tested is added is expressed in a relative value as compared to the standard cell proliferation (100%) in a control group to which no compound to be tested is added. For each compound tested, the amounts of cell proliferation were measured at different concentrations of addition and the dependence of the quantitative cell proliferation on the concentration of addition was investigated. From the results, a concentration of addition at which the amount of cell proliferation was inhibited by 50% relative to the amount of cell proliferation in the control group without addition was determined.
(§4) The test method was in accordance with the above-mentioned procedure, except that the period of incubation after the addition of a compound was 72 hours.
(§5) As illustrative examples, results are shown for an evaluation using mouse malignant melanoma B16/BL6 and B16 cell lines; leukemia L1210 cell line, colon cancer Colon26 cell line, and liver cancer MH134 cell line as cancer cells. For the cell proliferation inhibiting action of each compound tested for these cancer cells, 50% proliferation inhibiting concentrations are shown in Table 4.

[2] = system: mouse malignant melanoma B16 cell line; assay: Cell proliferation inhibition (72 hours); assay type: cell-based; settings: read-out: 50% proliferation inhibiting concentration B16 (nM) mean
Source text: as §1, §2, §3, §4, §5

[3] = target: Mouse histone deacetylase; assay type: biochemical; settings: enzyme from FM3A cells; [3H]acetyl histone; 37° C. 10 minutes
Method: In an enzyme system using a radio-labelled acetylated histone as a substrate, histone deacetylase enzyme inhibiting activity was evaluated. The basic conditions were in accordance with the method of Yoshida et al. (J. Biol. Chem., 265, 17174-17179, 1990).
Mouse histone deacetylase to be used was partially purified from FM3A cells. Cells were suspended in HDA buffer (15 mM potassium phosphate, 5% glycerol, 0.2 mM EDTA, pH 7.5), homogenized and centrifuged (35000×g, 10 min) to collect the nuclei which in turn were homogenized in the same buffer containing 1 M (NH4)2SO4. After ultrasonic disruption and centrifugation, the concentration of (NH4)2SO4 in the supernatant was increased to 3.5 M to precipitate deacetylase enzyme proteins. This precipitate was redissolved in HDA buffer, dialyzed against HDA buffer, applied to DEAE-cellulose column and eluted in NaCl gradient. Active fractions were used as a histone deacetylase enzyme solution.
As a substrate, [^3H]acetyl histone was used. In a culture solution of FM3A cells in the presence of 5 mM sodium n-butyrate, [^3H]acetate was added, followed by incubation for 30 minutes to radio-label the histone. The histone was prepared in a conventional manner and used as a substrate solution.
An assay was performed by adding a compound to be tested at a given concentration while using a no-addition control group, and by incubating the substrate solution and the enzyme solution at 37° C. for 10 minutes (reaction volume, 100 μl). The enzyme reaction was stopped by adding 10 μl of concentrated hydrochloric acid and the excised [^3H]acetate was extracted with ethyl acetate for radioactivity measurement. The inhibiting activity was expressed by a concentration at which the enzyme activity in the control group was inhibited by 50% (50% inhibiting concentration).

B16 = assay: In vivo anti-cancer activity in mouse (solid tumor system); settings: measured day-21, estimated from diameters
Method: (§6) Three mouse cancers Colon26, Meth A and B16 were used to evaluate in vivo anti-cancer activity of the cyclic tetrapeptide compounds according to the present invention in a solid tumor system. The cancer cells were cultured in a conventional manner, suspended in PBS and intradermally transplanted into a mouse ventral portion (10^5). The mouse used was CDF1, Balb/c or BDF1 (male, 7 weeks in age) for Colon 26, Meth A or B16, respectively. On day-4, 7 and 10 for Colon 26, or on day-7, 10, 13 and 16 for Meth A and B16 (day-0 being the day of cancer transplantation), a given amount of solution containing a predetermined amount of a compound to be tested was administered into the tail vein (10, 3 and 1 mg/kg; 2 ml/kg). In this example, the solution for administration used was PBS suspension (as neutralized with NaOH). On day-14 for Colon26 and on day-21 for Meth A and B16, the size of tumor (shorter and longer diameters) was measured. The tumor weight was estimated from the value obtained by calculation from the equation: ½×longer diameter×shorter diameter^2. Anti-tumor effects were based on the estimated tumor weight used as a measure and a tumor weight was estimated for a control group to which an equal amount of a drug-free solution was added; % inhibition was determined on the basis of the difference between the estimated tumor weights for the treated and control groups.

Colon 26 = assay: as above; settings: measured day-14, estimated from diameters
Method: as §6

Meth A = assay: as above
Method: as §6

[4] = rat, in vivo, 10 mg/kg
Method: Under anesthesia with Ketamine/Kylazine mixture, SD rats were administered with HDA-31 into the tail vein (10 mg/kg; 2 ml/kg). The drug was dispersed in PBS and neutralized with NaOH and the resulting suspension was used. After administration, blood was taken from the carotid artery at a given interval of time (using heparin as an anti-coagulant) and centrifuged to prepare plasma. HDA-31 in the plasma was extracted with MTBE (methyl-t-butyl-ether) and separated by reverse-phase HPLC and a peak area corresponding to HDA-31 was quantitatively determined with a mass spectrometer.

Work on CC[C@H](C)[C@@H]1NC(=O)[C@@H](Cc2ccc(OC)cc2)NC(=O)[C@H](CCCCCC(=O)NO)NC(=O)[C@H]2CCCN2C1=O [HDA-31, cyclo(-L-Asu(NHOH)-D-Tyr(Me)-L-Ile-D-Pro-)] (cyclo([Asu](NHOH)[dY](Me)I[dP])) yielded an IC50 [1] of 50.7 nM, an IC50 [2] of 44.2 nM and an IC50 [3] of 2.08 nM. For the same compound, the “tumor weight” value (B16; B16, 1 mg/kg tail vein on day-7, 10, 13 and 16) was 258 ± 184 mg, the “tumor weight” value (B16; B16, 3 mg/kg tail vein on day-7, 10, 13 and 16) was 280 ± 152 mg and the “tumor weight” value (B16; B16, 10 mg/kg tail vein on day-7, 10, 13 and 16) was 120 ± 112 mg. For the same compound, the “tumor weight” value (Colon 26; Colon 26, 1 mg/kg tail vein on day-4, 7 and 10) was 756 ± 25 mg, the “tumor weight” value (Colon 26; Colon 26, 3 mg/kg tail vein on day-4, 7 and 10) was 677 ± 155 mg and the “tumor weight” value (Colon 26; Colon 26, 10 mg/kg tail vein on day-4, 7 and 10) was 726 ± 123 mg. For the same compound, the “tumor weight” value (Meth A; 1 mg/kg tail vein on day-7, 10, 13 and 16, measured day-21, estimated from diameters) was 2100 ± 570 mg, the “tumor weight” value (Meth A; 3 mg/kg tail vein on day-7, 10, 13 and 16, measured day-21, estimated from diameters) was 1230 ± 500 mg and the “tumor weight” value (Meth A; 10 mg/kg tail vein on day-7, 10, 13 and 16, measured day-21, estimated from diameters) was 1470 ± 500 mg. For the same compound, the “concentration in blood (plasma) after intravenous administration” value [4] was “concentrations in blood exceeding the stated effective concentrations were maintained over a few hours”.
